Measured values published in patent US9187472B2 (AbbVie Inc., priority 2012, dated 2015).

tested on: PC3 cells; experiment: NAMPT Cell Proliferation Assay; assay type: cell-based; conditions: 5 days incubation, cell viability by Cell Titer Glo
In short: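 Following overnight attachment in RPMI with 10% heat-inactivated FBS, PC3 cells at 500 per well receive compounds spanning 10 μM down to 1×10^−5 μM. Growth is assessed by luminescent viability read after 5 days.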

| IC50 [nM] | SMILES |
| --- | --- |
| 66.9 | O=C(NCc1ccn2ccnc2c1)c1ccc(C2CCN(C(=O)/C=C/c3ccccn3)CC2)cc1 [Example 991, -(imidazo[1,2-a]pyridin-7-ylmethyl)-4-{1-[(2E)-3-(pyridin-2-yl)prop-2-enoyl]piperidin-4-yl}benzamide] |

same assay, conditions: Homo sapiens, PC-3, 120 h, 5 days incubation, cell viability by Cell Titer Glo

| SMILES | IC50 [nM] |
| --- | --- |
| O=C(NCc1ccn2ccnc2c1)c1ccc(C2CCN(C(=O)c3cc4ncccc4s3)CC2)cc1 [Example 983, N-(imidazo[1,2-a]pyridin-7-ylmethyl)-4-[1-(thieno[3,2-b]pyridin-2-ylcarbonyl)piperidin-4-yl]benzamide] | 724 |
| O=C(NCc1ccn2ccnc2c1)c1ccc(C2CCN(C(=O)c3ccc4cccnc4c3)CC2)cc1 [Example 984, N-(imidazo[1,2-a]pyridin-7-ylmethyl)-4-[1-(quinolin-7-ylcarbonyl)piperidin-4-yl]benzamide] | 55.4 |
| O=C(NCc1ccn2ccnc2c1)c1ccc(C2CCN(C(=O)c3cnc4c(c3)CCCO4)CC2)cc1 [Example 987, 4-[1-(3,4-dihydro-2H-pyrano[2,3-b]pyridin-6-ylcarbonyl)piperidin-4-yl]-N-(imidazo[1,2-a]pyridin-7-ylmethyl)benzamide] | 543 |
| O=C(NCc1ccn2ccnc2c1)c1ccc(C2CCN(C(=O)c3ccc4ccncc4c3)CC2)cc1 [Example 988, N-(imidazo[1,2-a]pyridin-7-ylmethyl)-4-[1-(isoquinolin-7-ylcarbonyl)piperidin-4-yl]benzamide] | 60.1 |
| O=C(NCc1ccn2ccnc2c1)c1ccc(C2CCN(C(=O)c3cnc4ccccc4n3)CC2)cc1 [Example 989, N-(imidazo[1,2-a]pyridin-7-ylmethyl)-4-[1-(quinoxalin-2-ylcarbonyl)piperidin-4-yl]benzamide] | 68.2 |
| Cc1cccn2cc(C(=O)N3CCC(c4ccc(C(=O)NCc5ccn6ccnc6c5)cc4)CC3)nc12 [Example 992, N-(imidazo[1,2-a]pyridin-7-ylmethyl)-4-{1-[(8-methylimidazo[1,2-a]pyridin-2-yl)carbonyl]piperidin-4-yl}benzamide] | 584 |
| CCOc1cc(C(=O)N2CCC(c3ccc(C(=O)NCc4ccn5ccnc5c4)cc3)CC2)ccn1 [Example 993, 4-{1-[(2-ethoxypyridin-4-yl)carbonyl]piperidin-4-yl}-N-(imidazo[1,2-a]pyridin-7-ylmethyl)benzamide] | 74 |
| N#Cc1cc(F)cc(C(=O)N2CCC(c3ccc(C(=O)NCc4ccn5ccnc5c4)cc3)CC2)c1 [Example 996, 4-[1-(3-cyano-5-fluorobenzoyl)piperidin-4-yl]-N-(imidazo[1,2-a]pyridin-7-ylmethyl)benzamide] | 62 |
| N#Cc1ccc(CC(=O)N2CCC(c3ccc(C(=O)NCc4ccn5ccnc5c4)cc3)CC2)cc1 [Example 998, 4-{1-[(4-cyanophenyl)acetyl]piperidin-4-yl}-N-(imidazo[1,2-a]pyridin-7-ylmethyl)benzamide] | 123 |
| N#Cc1cc(C(=O)N2CCC(c3ccc(C(=O)NCc4ccn5ccnc5c4)cc3)CC2)ccc1F [Example 999, 4-[1-(3-cyano-4-fluorobenzoyl)piperidin-4-yl]-N-(imidazo[1,2-a]pyridin-7-ylmethyl)benzamide] | 684 |
| O=C(NCc1ccn2ccnc2c1)c1ccc(C2CCN(C(=O)c3nc4c(s3)CCCC4)CC2)cc1 [Example 1000, N-(imidazo[1,2-a]pyridin-7-ylmethyl)-4-[1-(4,5,6,7-tetrahydro-1,3-benzothiazol-2-ylcarbonyl)piperidin-4-yl]benzamide] | 81.8 |
| O=C(NCc1ccn2ccnc2c1)c1ccc(C2CCN(C(=O)c3nc4ccccc4s3)CC2)cc1 [Example 1001, 4-[1-(1,3-benzothiazol-2-ylcarbonyl)piperidin-4-yl]-N-(imidazo[1,2-a]pyridin-7-ylmethyl)benzamide] | 95.3 |
| CCc1cc(C(=O)N2CCC(c3ccc(C(=O)NCc4ccn5ccnc5c4)cc3)CC2)on1 [Example 1002, 4-{1-[(3-ethyl-1,2-oxazol-5-yl)carbonyl]piperidin-4-yl}-N-(imidazo[1,2-a]pyridin-7-ylmethyl)benzamide] | 154 |
| O=C(NCc1ccn2ccnc2c1)c1ccc(C2CCN(C(=O)c3ccc4snnc4c3)CC2)cc1 [Example 1004, 4-[1-(1,2,3-benzothiadiazol-5-ylcarbonyl)piperidin-4-yl]-N-(imidazo[1,2-a]pyridin-7-ylmethyl)benzamide] | 56.7 |
| CCc1nc(C(=O)N2CCC(c3ccc(C(=O)NCc4ccn5ccnc5c4)cc3)CC2)cs1 [Example 1005, 4-{1-[(2-ethyl-1,3-thiazol-4-yl)carbonyl]piperidin-4-yl}-N-(imidazo[1,2-a]pyridin-7-ylmethyl)benzamide] | 74.7 |
| CC(C)c1nccc(C(=O)N2CCC(c3ccc(C(=O)NCc4ccn5ccnc5c4)cc3)CC2)n1 [Example 1006, N-(imidazo[1,2-a]pyridin-7-ylmethyl)-4-(1-{[2-(propan-2-yl)pyrimidin-4-yl]carbonyl}piperidin-4-yl)benzamide] | 73.7 |

Next, values leading:

| IC50 [nM] | SMILES |
| --- | --- |
| 28.3 | N#Cc1ccc(F)c(C(=O)N2CCC(c3ccc(C(=O)NCc4ccn5ccnc5c4)cc3)CC2)c1 [Example 985, 4-[1-(5-cyano-2-fluorobenzoyl)piperidin-4-yl]-N-(imidazo[1,2-a]pyridin-7-ylmethyl)benzamide] |
| 21.4 | O=C(NCc1ccn2ccnc2c1)c1ccc(C2CCN(C(=O)c3cnc4c(c3)CCCC4)CC2)cc1 [Example 986, N-(imidazo[1,2-a]pyridin-7-ylmethyl)-4-[1-(5,6,7,8-tetrahydroquinolin-3-ylcarbonyl)piperidin-4-yl]benzamide] |
| 17.9 | COc1ncccc1/C=C/C(=O)N1CCC(c2ccc(C(=O)NCc3ccn4ccnc4c3)cc2)CC1 [Example 990, N-(imidazo[1,2-a]pyridin-7-ylmethyl)-4-{1-[(2E)-3-(2-methoxypyridin-3-yl)prop-2-enoyl]piperidin-4-yl}benzamide] |
| 12.1 | Cn1nc(C(=O)N2CCC(c3ccc(C(=O)NCc4ccn5ccnc5c4)cc3)CC2)c2c1CCCC2 [Example 994, N-(imidazo[1,2-a]pyridin-7-ylmethyl)-4-{1-[(1-methyl-4,5,6,7-tetrahydro-1H-indazol-3-yl)carbonyl]piperidin-4-yl}benzamide] |
| 10.8 | Cn1c(C(=O)N2CCC(c3ccc(C(=O)NCc4ccn5ccnc5c4)cc3)CC2)cc2occc21 [Example 995, N-(imidazo[1,2-a]pyridin-7-ylmethyl)-4-{1-[(4-methyl-4H-furo[3,2-b]pyrrol-5-yl)carbonyl]piperidin-4-yl}benzamide] |
| 19.4 | O=C(NCc1ccn2ccnc2c1)c1ccc(C2CCN(C(=O)c3cccc4ccncc34)CC2)cc1 [Example 997, N-(imidazo[1,2-a]pyridin-7-ylmethyl)-4-[1-(isoquinolin-8-ylcarbonyl)piperidin-4-yl]benzamide] |
| 4.96 | C=CCn1nc(C)cc1C(=O)N1CCC(c2ccc(C(=O)NCc3ccn4ccnc4c3)cc2)CC1 [Example 1003, N-(imidazo[1,2-a]pyridin-7-ylmethyl)-4-(1-{[3-methyl-1-(prop-2-en-1-yl)-1H-pyrazol-5-yl]carbonyl}piperidin-4-yl)benzamide] |
| 37.3 | Cc1cc(C(=O)N2CCC(c3ccc(C(=O)NCc4ccn5ccnc5c4)cc3)CC2)cnc1C [Example 1007, 4-{1-[(5,6-dimethylpyridin-3-yl)carbonyl]piperidin-4-yl}-N-(imidazo[1,2-a]pyridin-7-ylmethyl)benzamide] |
| 2.94 | CC(C)C1CC(C(=O)N2CCC(c3ccc(C(=O)NCc4ccn5ccnc5c4)cc3)CC2)CCO1 (stereo not drawn) [Example 1008, N-(imidazo[1,2-a]pyridin-7-ylmethyl)-4-(1-{[2-(propan-2-yl)tetrahydro-2H-pyran-4-yl]carbonyl}piperidin-4-yl)benzamide] |
| 1.2 | COc1cccc(C)c1C(=O)N1CCC(c2ccc(C(=O)NCc3ccn4ccnc4c3)cc2)CC1 [Example 1009, N-(imidazo[1,2-a]pyridin-7-ylmethyl)-4-[1-(2-methoxy-6-methylbenzoyl)piperidin-4-yl]benzamide] |
| 5.8 | O=C(NCc1ccn2ccnc2c1)c1ccc(C2CCN(C(=O)c3cccc4ncsc34)CC2)cc1 [Example 1010, 4-[1-(1,3-benzothiazol-7-ylcarbonyl)piperidin-4-yl]-N-(imidazo[1,2-a]pyridin-7-ylmethyl)benzamide] |
| 1.97 | CC(C)n1ccc(C(=O)N2CCC(c3ccc(NC(=O)NCc4ccn5ccnc5c4)cc3)CC2)n1 [Example 1011, 1-(imidazo[1,2-a]pyridin-7-ylmethyl)-3-[4-(1-{[1-(propan-2-yl)-1H-pyrazol-3-yl]carbonyl}piperidin-4-yl)phenyl]urea] |
| 8.36 | O=C(NCc1ccn2ccnc2c1)Nc1ccc(C2CCN(C(=O)[C@@H]3COc4ccccc4O3)CC2)cc1 [Example 1012, 1-(4-{1-[(2S)-2,3-dihydro-1,4-benzodioxin-2-ylcarbonyl]piperidin-4-yl}phenyl)-3-(imidazo[1,2-a]pyridin-7-ylmethyl)urea] |
| 2.32 | Cn1nc(C2CC2)cc1C(=O)N1CCC(c2ccc(NC(=O)NCc3ccn4ccnc4c3)cc2)CC1 [Example 1013, 1-(4-{1-[(3-cyclopropyl-1-methyl-1H-pyrazol-5-yl)carbonyl]piperidin-4-yl}phenyl)-3-(imidazo[1,2-a]pyridin-7-ylmethyl)urea] |
| 2.07 | Cn1nc2c(c1C(=O)N1CCC(c3ccc(NC(=O)NCc4ccn5ccnc5c4)cc3)CC1)CCCC2 [Example 1014, 1-(imidazo[1,2-a]pyridin-7-ylmethyl)-3-(4-{1-[(2-methyl-4,5,6,7-tetrahydro-2H-indazol-3-yl)carbonyl]piperidin-4-yl}phenyl)urea] |
| 1.68 | O=C(NCc1ccn2ccnc2c1)Nc1ccc(C2CCN(C(=O)c3onc4c3CCCC4)CC2)cc1 [Example 1015, 1-(imidazo[1,2-a]pyridin-7-ylmethyl)-3-{4-[1-(4,5,6,7-tetrahydro-2,1-benzoxazol-3-ylcarbonyl)piperidin-4-yl]phenyl}urea] |
